Measurements as given in US9617256B2 (priority 2007, dated 2017).
≈ marks a conversion by molar mass, not a printed value. Like-named read-outs stand apart in the source and are kept apart here.

Columns and labels:
AECO001 (ATCC25922) = assay: MIC broth microdilution, AECO001; type: cell-based, E. coli; settings: for MIC: Escherichia coli
Method: (§1) Bacterial isolates were cultivated from −70° C. frozen stocks by overnight passages at 35° C. in ambient air on Mueller-Hinton agar (Beckton Dickinson, Franklin Lakes, N.J.). Clinical isolates tested were obtained from various geographically diverse hospitals in the US and abroad (Focus Diagnostics, Herndon, Va. and JMI, North Liberty, Iowa). Quality control strains were from the American Type Culture Collection (ATCC; Rockville, Md.). Additional primary panel strains were generated using standard molecular biology techniques.
(§2) Minimum Inhibitory Concentrations (MICs) were determined by the broth microdilution method in accordance with the Clinical and Laboratory Standards Institute (CLSI) guidelines. In brief, organism suspensions were adjusted to a 0.5 McFarland standard to yield a final inoculum between 3×10^5 and 7×10^5 colony-forming units (CFU)/mL. Drug dilutions and inocula were made in sterile, cation adjusted Mueller-Hinton Broth (Beckton Dickinson). An inoculum volume of 100 μL was added to wells containing 100 μL of broth with 2-fold serial dilutions of drug. All inoculated microdilution trays were incubated in ambient air at 35° C. for 18-24 hours. […] Performance of the assay was monitored by the use of laboratory quality-control strains and levofloxacin, a compound with a defined MIC spectrum, in accordance with CLSI guidelines.
(§3) *AECO001 is ATCC25922, AECO063 is ATCC25922 bearing an acrAB mutation, APAE001 is ATCC27853, APAE006 is a strain of P. aeruginosa in which all efflux pumps are inactivated, APAE006+PMBN indicates MICs with the indicated strain in the presence of 8 micrograms per milliliter of polymyxin B nonapeptide, AABA1060 is a clinical isolate of Acinetobacter baumannii, ASAU001 is a laboratory strain of S. aureus (ATCC29213).

[1] = system: AECO063 (ATCC25922 bearing an acrAB mutation); assay: microbe, parasite or virus in culture; type: cell-based, E. coli; settings: for MIC: Escherichia coli, ATCC25922, read-out: MIC AECO063
Method: as §1, §2, §3

APAE001 (ATCC27853) = assay: MIC broth microdilution, APAE001; type: cell-based, P. aeruginosa; settings: Pseudomonas aeruginosa, ATCC27853, read-out: MIC APAE001, APAE001 (ATCC27853)
Method: as §1, §2, §3

[2] = system: APAE006 (strain of P. aeruginosa in which all efflux pumps are inactivated); assay: microbe, parasite or virus in culture; type: cell-based; settings: Pseudomonas aeruginosa, read-out: MIC APAE006, APAE006, all efflux pumps inactivated
Method: as §1, §2, §3

[3] = system: APAE006 in the presence of 8 micrograms per milliliter of polymyxin B nonapeptide; type: cell-based, P. aeruginosa; settings: APAE006 with 8 micrograms per milliliter polymyxin B nonapeptide
Method: as §1, §2, §3

[4] = system: AABA1060 (clinical isolate of Acinetobacter baumannii); assay: MIC broth microdilution, AABA1060; type: cell-based; settings: for MIC: Acinetobacter baumannii, read-out: MIC AABA1060
Method: as §1, §2, §3

[5] = system: ASAU001 (laboratory strain of S. aureus, ATCC29213); assay: MIC broth microdilution, ASAU001; type: cell-based; settings: for MIC: Staphylococcus aureus, ATCC29213, read-out: MIC ASAU001
Method: as §1, §2, §3

[6] = ATCC25922, read-out: MIC AECO001
[7] = ATCC25922, read-out: MIC AECO001 HSA AGP

Row | Compound | MIC (AECO001 (ATCC25922); [6]) [µg/mL] | MIC (AECO001 (ATCC25922); [7]) [µg/mL] | MIC [1] [µg/mL] | MIC (APAE001 (ATCC27853)) [µg/mL] | MIC [2] [µg/mL] | MIC APAE006 + PMBN [3] | MIC [4] [µg/mL] | MIC [5] [µg/mL] | MIC AECO001 (AECO001 (ATCC25922); AECO001 (ATCC25922)) | MIC AECO063 ([1]; AECO063 (ATCC25922 acrAB mutation)) | MIC AABA1060 ([4]; AABA1060 clinical isolate) | MIC ASAU001 ([5]; ASAU001 (ATCC29213)) | Ratio of MICs on AECO001 [Cpd (A = —CHCH3NH2)/Cpd (A = —C(CH3)2NH2)] (AECO001 (ATCC25922); MIC of paired compound with A = —CHCH3NH2 divided by MIC of compound with A = —C(CH3)2NH2, n=2 data, pairs identical except for the A moiety)
1 | CC(C)(O)[C@H](NC(=O)c1ccc(C#CC#Cc2ccc(F)cc2)cc1)C(=O)NO [Example 82-19] | < 2 | 2 to 16 (≈ 5.07 to 40.6 µM) | < 2 | 2 to 16 (≈ 5.07 to 40.6 µM) | < 2 | A (MIC's of 2.0 μg/mL or less = A) | < 2 | 16 to 64 (≈ 40.6 to 162 µM) | – | – | – | – | –
2 | CCOCc1ccc(C#CC#Cc2ccc(C(=O)N[C@H](C(=O)NO)[C@@H](C)O)cc2)cc1 [Example 82-20] | < 2 | 2 to 16 (≈ 4.76 to 38.1 µM) | < 2 | 2 to 16 (≈ 4.76 to 38.1 µM) | < 2 | A (MIC's of 2.0 μg/mL or less = A) | 2 to 16 (≈ 4.76 to 38.1 µM) | 16 to 64 (≈ 38.1 to 152 µM) | – | – | – | – | –
3 | CCOCc1ccc(C#CC#Cc2ccc(C(=O)N[C@H](C(=O)NO)C(C)(C)O)cc2)cc1 [Example 82-21] | < 2 | 2 to 16 (≈ 4.6 to 36.8 µM) | < 2 | 2 to 16 (≈ 4.6 to 36.8 µM) | < 2 | A (MIC's of 2.0 μg/mL or less = A) | < 2 | 16 to 64 (≈ 36.8 to 147 µM) | – | – | – | – | –
4 | C[C@@H](O)[C@H](NC(=O)c1ccc(C#CC#Cc2ccc(C(F)(F)F)cc2)cc1)C(=O)NO [Example 82-22] | – | 16 to 64 (≈ 37.2 to 149 µM) | – | 16 to 64 (≈ 37.2 to 149 µM) | 16 to 64 (≈ 37.2 to 149 µM) | A (MIC's of 2.0 μg/mL or less = A) | – | – | A (MIC's of 2.0 μg/mL or less = A) | A (MIC's of 2.0 μg/mL or less = A) | C (MIC's of greater than 16.0 μg/mL to 64.0 μg/mL = C) | C (MIC's of greater than 16.0 μg/mL to 64.0 μg/mL = C) | –
5 | C[C@@H](O)[C@H](NC(=O)c1ccc(C#CC#Cc2ccc(F)cc2)cc1)C(=O)NO [Example 82-23] | < 2 | 16 to 64 (≈ 42.1 to 168 µM) | < 2 | 16 to 64 (≈ 42.1 to 168 µM) | < 2 | A (MIC's of 2.0 μg/mL or less = A) | 16 to 64 (≈ 42.1 to 168 µM) | 16 to 64 (≈ 42.1 to 168 µM) | – | – | – | – | –
6 | CC(C)(O)[C@H](NC(=O)c1ccc(C#CC#Cc2cccc(F)c2)cc1)C(=O)NO [Example 82-24] | < 2 | 2 to 16 (≈ 5.07 to 40.6 µM) | < 2 | 2 to 16 (≈ 5.07 to 40.6 µM) | < 2 | A (MIC's of 2.0 μg/mL or less = A) | < 2 | 2 to 16 (≈ 5.07 to 40.6 µM) | – | – | – | – | –
7 | CC(C)(N)[C@H](NC(=O)c1ccc(C#CC#Cc2ccc(N)cc2)cc1)C(=O)NO [Example 82-25] | < 2 | < 2 | < 2 | < 2 | < 2 | A (MIC's of 2.0 μg/mL or less = A) | < 2 | 16 to 64 (≈ 41 to 164 µM) | – | – | – | – | 1.6
8 | CC(C)(N)[C@H](NC(=O)c1ccc(C#CC#Cc2ccccc2F)cc1)C(=O)NO [Example 82-29] | < 2 | < 2 | – | < 2 | < 2 | – | < 2 | 2 to 16 (≈ 5.08 to 40.7 µM) | – | – | – | – | –
9 | CC(C)(O)[C@H](NC(=O)c1ccc(C#CC#Cc2cccs2)cc1)C(=O)NO [Example 88-11] | < 2 | < 2 | < 2 | < 2 | < 2 | – | < 2 | 16 to 64 (≈ 41.8 to 167 µM) | – | – | – | – | –
10 | CC(C)CC#CC#Cc1ccc(C(=O)N[C@H](C(=O)NO)[C@@H](C)N)cc1 [Example 91-24] | < 2 | 2 to 16 (≈ 5.86 to 46.9 µM) | < 2 | < 2 | < 2 | – | 2 to 16 (≈ 5.86 to 46.9 µM) | 2 to 16 (≈ 5.86 to 46.9 µM) | – | – | – | – | –
11 | CC(C)(N)[C@H](NC(=O)c1ccc(C#CC#CCC2CC2)cc1)C(=O)NO [Example 91-26] | < 2 | < 2 | < 2 | < 2 | < 2 | – | < 2 | 16 to 64 (≈ 45.3 to 181 µM) | – | – | – | – | –
12 | C[C@@H](N)[C@H](NC(=O)c1ccc(C#CC#CCC2CC2)cc1)C(=O)NO [Example 91-27] | < 2 | 2 to 16 (≈ 5.89 to 47.1 µM) | < 2 | < 2 | < 2 | – | 2 to 16 (≈ 5.89 to 47.1 µM) | 16 to 64 (≈ 47.1 to 189 µM) | – | – | – | – | –
13 | C[C@H](NCC(=O)N[C@H](C)[C@H](NC(=O)c1ccc(C#Cc2ccccc2)cc1)C(=O)NO)c1ccccc1 [Example 132-5] | 16 to 64 (≈ 32.1 to 128 µM) | 16 to 64 (≈ 32.1 to 128 µM) | – | 16 to 64 (≈ 32.1 to 128 µM) | < 2 | – | 16 to 64 (≈ 32.1 to 128 µM) | 16 to 64 (≈ 32.1 to 128 µM) | – | – | – | – | –
